Source: article PMC6564044, “Exploring E-cadherin-peptidomimetics interaction using NMR and computational studies” (PLoS Computational Biology, 2019)
Read-outs that look alike come from different tables or passages of the source. Positions of bridges follow the written chain, without caps; N, C: chain ends.

Tests used:
[1] = test system: N-cadherin mediated processes; conditions: cited from earlier work
Text: Beside its broad-ranging effects on physiological tissue organization, classical cadherin dysfunction is often correlated with cancer progression and metastasis. Despite Epithelial (E)- to Neural (N-) cadherin switching being considered a molecular hallmark of epithelial to mesenchymal transition of cancer cells, carcinomas and distal metastases often retain E-cadherin expression, as observed for instance in late stage tumors in epithelial ovarian cancer (EOC). In this context, targeting the E-cadherin adhesive interface with small molecules could have a therapeutic a ...

wt E-cadherin-EC1-EC2 [2] = assay: STD-NMR epitope mapping with wt E-cadherin-EC1-EC2; assay type: binding, human
Text: STD-NMR is a consolidated technique based on Overhauser effect that is used to study the interactions between small ligands and macromolecules. The method relies on the selective irradiation of the protein, which allows magnetization to be transferred to the bound ligand (which is in great excess in solution compared to the protein concentration). The saturated ligand is displaced in solution due to the binding equilibrium and the observation of the ligand signals in the NMR spectrum provides an indication of the interaction. Those ligand protons that are nearest to the protein are more likely to become highly saturated, and therefore show the strongest signal in the mono-dimensional STD spectrum. Owing to the efficiency of the saturation process, the modulation of the ligand signal intensity is used as an epitope-mapping method to describe the target-ligand interactions. In fact, the intensity of the STD signal (expressed as absolute STD percentage) reflects the proximity of the ligand to the protein surface. Therefore, the group epitope mapping obtained provides information about the nature of the chemical moieties of the ligand that are crucial for molecular recognition in the binding site. We also used the STD amplification factors (STD-AF) to derive the dissociation constant (KD) of the ligand-protein complexes. Moreover, we performed tr-NOESY experiments in order to determine the preferred bound conformation of the ligands.
(§1) STD–NMR and tr-NOESY spectra were acquired in 20 mM phosphate buffer at pH 7.4 (with 150 mM NaCl and 1 mM CaCl2) and 40 μM EC1-EC2 fragments of E-cadherin. In this condition, a monomeric form is predominant in solution [28]. We performed STD-NMR experiments at 283K, 290K and 298K since lowering the temperature helps to […] the rotational correlation time of the receptor and to increase the effective magnetization transfer. […] Furthermore, we also studied the binding modes of the ligands in the presence of the truncated mutant (E-cadherin-(Val3)-EC1-EC2).
(§2) The spectra were acquired with a Bruker Avance 600 MHz instrument at 283, 290 and 298 K, in a 3 mm NMR tube and in the phosphate buffer previously described (200 μL).
(§3) The interaction between ligands and isolated proteins was detected using trNOESY, trROESY and STD experiments. In trNOESY and trROESY experiments, water suppression was achieved by use of an excitation sculpting pulse sequence. In STD experiments water suppression was achieved by using the WATERGATE 3-9-19 pulse sequence.
(§4) The on-resonance irradiation of the protein was kept at -0.05 ppm. Off-resonance irradiation of the protein was applied at 200 ppm, where no protein signals were visible. Selective presaturation of the protein was achieved by a train of Gauss shaped pulses of 49 ms length each. The total length of the saturation train was 2.94 s.
(§5) All the experiments were conducted with the first two domains (EC1-EC2) of wt E–cadherin (Molecular Weight EC1-EC2 construct = 23 KDa) and with the construct lacking the first two residues (E-cadherin-(Val3)-EC1-EC2), with a ligand-protein ratio of 80:1.
Since calcium ions are important to rigidify the EC1-EC2 linker region in the monomeric protein and considering that the use of phosphate buffer in the presence of CaCl2 may be critical, due to the limited solubility of CaHPO4, we studied the stability of the protein in phosphate buffer. We monitored the chemical shift variation in ^1H-^15N-HSQC experiment using the ^15N-labeled protein for 24 hours and we can confirm that the protein remains in the correct folding.

wt E-cadherin-EC1-EC2 [3] = assay: KD determination by STD-NMR titration (STD-AF isotherm); assay type: binding, human; conditions: STD-AF vs ligand concentration, two STD measurements per point; 283 K; protein 0.05 mM, ligand 2.0-16.0 mM
Text: STD-NMR is a consolidated technique based on Overhauser effect that is used to study the interactions between small ligands and macromolecules. The method relies on the selective irradiation of the protein, which allows magnetization to be transferred to the bound ligand (which is in great excess in solution compared to the protein concentration). The saturated ligand is displaced in solution due to the binding equilibrium and the observation of the ligand signals in the NMR spectrum provides an indication of the interaction. […] In fact, the intensity of the STD signal (expressed as absolute STD percentage) reflects the proximity of the ligand to the protein surface. […]
In order to evaluate the interaction strength between E-cadherin and compound 1, we acquired a series of STD spectra at variable ligand concentrations. The STD amplification factor (STD-AF) can be calculated by multiplying the observed STD by the molar excess of the ligand over the protein [20, 21, 25–27], so that its values depend on the fraction of bound protein. […]
Supplementary file pcbi.1007041.s004.tif: S3 Fig Variation of STD-AF versus the increase of ligand 1 concentration in presence of E-cadherin interacting protons and the intensities observed are reported in the graph. We measured the KD value of compound 1 (S3 Fig) and 2 in the presence of E-cadherin by STD (for each point we performed two STD measurements). […]

[4] = test system: E-cadherin-(Val3)-EC1-EC2; assay: STD-NMR epitope mapping with truncated E-cadherin; assay type: binding, human; conditions: for STD epitope with truncated E-cadherin: three temperatures, ligand-protein 80:1
Description: as §1, §2, §3, §4, §5

wt E-cadherin-EC1-EC2 [5] = assay: tr-NOESY bound conformation; assay type: binding, human; conditions: presence of E-cadherin
Description: as §1, §2, §3

[6] = Free ligand NMR conformational analysis (NOESY, VT-NMR); assay type: physicochemical; conditions: for hydrogen bonding of amide/exchangeable protons: free ligand, VT experiments (compound 1); for NOESY free-state conformation: phosphate buffer, 283 K and 298 K
Description: NMR spectroscopy experiments were performed at 283K and 298K on Bruker Avance 400 and 600 MHz spectrometers. All proton and carbon chemical shifts were assigned unambiguously and the assignments are reported in S1–S4 Tables. The NMR experiments were carried out in an aqueous phosphate (20 mM) buffer pH = 7 with 150 mM NaCl and 1 mM CaCl2 in order to observe amide protons with 10% D2O. Two-dimensional experiments (TOCSY, NOESY, ROESY and HSQC) were carried out on samples at a concentration range of 3–6 mM. NOESY experiments were performed with a mixing time of 200 and 700 ms.
In order to obtain clear spectra, the water signal suppression was achieved by using excitation sculpting sequence from Bruker library (DPFGSE, Double Pulse Field Gradient Spin Echo).
The conformations of the peptidomimetics were analysed with respect to hydrogen bonding of amide protons (VT-NMR spectroscopy) and NOE contacts.

E-cadherin-EC1-EC2 = conditions: mutant EC1-EC2 lacking Asp1-Trp2 (PDB 4ZTE) or intact EC1-EC2 as stated, cited from earlier work
Text: Recently, we reported the first library of small peptidomimetic molecules targeting the strand-swapped dimer interfaces of E- and N-cadherin. These compounds are mimics of the tetrapeptide sequence Asp1-Trp2-Val3-Ile4 (DWVI) of the adhesion arm, modified by replacing the central dipeptide unit (WV) with various scaffolds, all of them bearing a benzyl group that is intended to mimic the indole moiety of Trp2.

[7] = 283, 290 and 298 K, wt E-cadherin-EC1-EC2
[8] = 283 K, wt E-cadherin-EC1-EC2, ligand-protein 80:1
[9] = 290 K, wt E-cadherin-EC1-EC2, ligand-protein 80:1
[10] = VT-NMR, phosphate 20 mM, pH 7, 10% D2O

Ac-CHAVC-NH2 (disulfide 1-5 (inferred)) [ADH-1]
reported activity [1]: anti-angiogenic agent able to cause cell apoptosis

CCC(C)C(NC(=O)C1CCC2CCN(Cc3ccccc3)CC(NC(=O)C(N)CC(=O)O)C(=O)N21)C(N)=O.O=C(O)C(F)(F)F (stereo not shown) [compound 2]
absolute STD % of aromatic protons (wt E-cadherin-EC1-EC2 [2]; [7]): about 0.2%
absolute STD % of NH19 (wt E-cadherin-EC1-EC2 [2]; 283 K, 40 μM protein, 20 mM phosphate pH 7.4, 150 mM NaCl, 1 mM CaCl2, ligand-protein 80:1): 2.078%
absolute STD % of C-terminal amidic NH2 (wt E-cadherin-EC1-EC2 [2]; [8]): 0.2%
absolute STD % of scaffold H4/H6 (wt E-cadherin-EC1-EC2 [2]; [8]): 0.265%
STD signal of scaffold H4 and H6 (wt E-cadherin-EC1-EC2 [2]; 290 K, wt E-cadherin-EC1-EC2): not detectable
absolute STD % of C-terminal amidic NH2 (wt E-cadherin-EC1-EC2 [2]; [9]): 0.463%
absolute STD % of NH19 (wt E-cadherin-EC1-EC2 [2]; [9]): 1.441%
protons observable in STD spectrum (wt E-cadherin-EC1-EC2 [2]; 298 K, wt E-cadherin-EC1-EC2): only the aromatic protons and the amidic NH2 (0.806%) are observable in the STD spectrum
absolute STD % of C-terminal amidic NH2 (wt E-cadherin-EC1-EC2 [2]; 298 K, wt E-cadherin-EC1-EC2, ligand-protein 80:1): 0.806%
Kd (wt E-cadherin-EC1-EC2 [3]): > 20 mM
STD epitope with truncated E-cadherin ([4]; E-cadherin-(Val3)-EC1-EC2): the only protons that are involved in the interaction are the aromatic ones
tr-NOESY bound conformation / contacts (wt E-cadherin-EC1-EC2 [5]): no long range interactions were detected
hydrogen bonding of amide/exchangeable protons [6]: the exchangeable protons are not involved in intra-molecular hydrogen bond formation
NOESY free-state conformation [6]: did not show any significant long range NOE contact typical of a preferred conformation
X-ray binding / co-crystallization (E-cadherin-EC1-EC2): attempts to co-crystallize both compounds 1 and 2 with intact E-cadherin-EC1-EC2 did not yield results

CCC(C)C(NC(=O)CC1NC(=O)C(CNC(=O)C(N)CC(=O)O)N(Cc2ccccc2)C1=O)C(=O)NC(C)(C)C.O=C(O)C(F)(F)F (stereo not shown) [compound 1]
STD interaction of aromatic moiety (wt E-cadherin-EC1-EC2 [2]; [7]): interacts at all the temperatures with similar strength
STD epitope changes (NH10, NH1, Ile NH) (wt E-cadherin-EC1-EC2 [2]; 290 K, wt E-cadherin-EC1-EC2): NH10 STD signal disappears, NH1 decreases in intensity and the signal of the amidic Ile proton appears
STD epitope, NHIle (wt E-cadherin-EC1-EC2 [2]; 298 K, wt E-cadherin-EC1-EC2): NHIle signal replaces those of NH1 and NH10
STD epitope, NH1 and NH10 (wt E-cadherin-EC1-EC2 [2]; lowest temperature (283 K), wt E-cadherin-EC1-EC2): strong interactions at the lowest temperature
STD interaction of Ile backbone NH (wt E-cadherin-EC1-EC2 [2]; temperature dependence, wt E-cadherin-EC1-EC2): seems to interact only at a higher temperature
Kd (wt E-cadherin-EC1-EC2 [3]): > 20 mM
STD epitope with truncated E-cadherin ([4]; E-cadherin-(Val3)-EC1-EC2): only the aromatic protons are able to interact with the protein
binding affinity to truncated vs wt E-cadherin ([4]; E-cadherin-(Val3)-EC1-EC2 vs wt, 283 K): weaker binding affinity
N-terminal Asp amine signal in STD ([4]; lower amount of D2O, E-cadherin-(Val3)-EC1-EC2): the N-terminal amine of the Asp residue of the ligand can be observed
tr-NOESY bound conformation / contacts (wt E-cadherin-EC1-EC2 [5]): in the bound form compound 1 adopts an extended conformation
Δδ/ΔT of NH10 ([6]; VT-NMR, phosphate 20 mM, pH 7, 150 mM NaCl, 1 mM CaCl2, 10% D2O): 4.67 ppb*10^3
Δδ/ΔT of NH1 [6, 10]: 8.33 ppb*10^3
Δδ/ΔT of NHIle [6, 10]: 7.67 ppb*10^3
Δδ/ΔT of NHtBu [6, 10]: 7.33 ppb*10^3
hydrogen bonding of amide/exchangeable protons [6]: NH10 is the only one that could be engaged in an inter-molecular hydrogen bond
NOESY free-state conformation [6]: equilibrium between different conformations
X-ray binding / co-crystallization (E-cadherin-EC1-EC2): binds to a dimeric conformation of E-cadherin, the so-called ‘X-dimer’
X-ray binding / co-crystallization (E-cadherin-EC1-EC2; listed as compounds 1): attempts to co-crystallize both compounds 1 and 2 with intact E-cadherin-EC1-EC2 did not yield results
